The target in test [1] is T1, HIV-1 protease (Human immunodeficiency virus type 1 group M subtype B, UniProt P04585). In words: biochemical. To be noted: for inhibition at 0.123 µM: read-out: HIV-1 Protease % Inhib, dose 0.123 uM; for inhibition at 0.37 µM: read-out: HIV-1 Protease % Inhib, dose 0.370 uM; for inhibition at 1.1 µM: read-out: HIV-1 Protease % Inhib, dose 1.100 uM; for inhibition at 3.3 µM: read-out: HIV-1 Protease % Inhib, dose 3.300 uM; for inhibition at 10 µM: read-out: HIV-1 Protease % Inhib, dose 10.000 uM; for inhibition at 30 µM: read-out: HIV-1 Protease % Inhib, dose 30.000 uM. The method in brief: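 Biotinylated, FITC-labeled peptide substrate (20 μl of 0.2 μM) incubated with HIV-1 protease (10 μl of 0.1 μM) and compound in 0.1 M sodium acetate pH 5.5, 1.0 M NaCl, 0.05% NP-40, 1 h, room temperature, dark. Streptavidin beads then capture uncleaved substrate; filtered labeled product read by fluorescence, giving percent inhibition.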

Test [2] concerns the target T1, HIV-1 protease. The test can be described thus: biochemical. To be noted: read-out: HIV-1 FITC KI. The procedure: Determination of Ki values utilizes the same materials and equipment employed for percent inhibition studies. Two-fold serial dilutions are made for a given inhibitor from 2, 3 or 4 starting concentrations with a total of 24, 36 or 48 individual inhibitor concentrations. These dilutions are performed utilizing the BioMek robotics system. The assay consists of 10 μL of 40 nM HIV-1 protease, 10 μL of the various inhibitor concentrations, and 20 μL of 200 μM substrate (40 μL total). The reaction is allowed to proceed for 90 min at room temperature, terminated with 40 μL of avidin beads and processed (supra vide). An inhibitor with a known Ki is run in parallel to verify the validity of the assay. The data is processed utilizing a computer program employing a nonlinear least square analysis of the data to generate the Ki values.

Molecules are shown by their SMILES. Where “and” joins values, the source holds several entries; their conditions need not be identical. Equal values may be shown once.

In general, Ki refers to a dissociation constant, usually derived from enzyme kinetics or from competition with a known ligand. Take `O=c1oc2c(c(O)c1C(c1cccc(NS(=O)(=O)c3ccc(-c4ccccn4)s3)c1)C1CC1)CCCCCC2` (stereo not drawn) [Example 310, N-[3-[Cyclopropyl(5,6,7,8,9,10-hexahydro4-hydroxy-2-oxo-2H-cycloocta[b]pyran-3-yl)methyl]phenyl]-5-(2-pyridinyl)-2-thiophenesulfonamide]: in test [1], the inhibition at 0.123 µM stood at 46.2%, the inhibition at 0.37 µM came out at 86.2%, the inhibition at 1.1 µM worked out at 94.9% and the inhibition at 3.3 µM came to 99%. In addition, in test [1], the inhibition at 10 µM came to 103% and the inhibition at 30 µM turned out to be 102%. Besides, the Ki in test [2] worked out at 2.37 nM.
For the compound `O=c1oc2c(c(O)c1C(c1cccc(NS(=O)(=O)c3c(F)c(F)c(F)c(F)c3F)c1)C1CC1)CCCCCC2` (stereo not drawn) [Example 278, N-[3-[Cyclopropyl(5,6,7,8,9,10-hexahydro-4-hydroxy-2-oxo-2H-cycloocta[b]pyran-3-yl)methyl]phenyl]-2,3,4,5,6-pentafluoro-benzenesulfonamide], in test [1], the inhibition at 0.123 µM was determined as 36.3%, the inhibition at 0.37 µM was found to be 78.2%, the inhibition at 1.1 µM stood at 94.7% and the inhibition at 3.3 µM was determined as 101%. Further, in test [1], the inhibition at 10 µM stood at 102% and the inhibition at 30 µM came to 110%. Further, the Ki in test [2] stood at 13.6 nM.
As to `CCCC1CCCCCc2c1oc(=O)c(C(c1ccccc1)C1CC1)c2O` (stereo not drawn) [Example 128, 3-(Cyclopropyl-phenyl-methyl)-4-hydroxy-10-propyl-5,6,7,8,9,10-hexahydro-cycloocta[b]pyran-2-one], in test [1], the inhibition at 0.123 µM came out at 32.5%, the inhibition at 0.37 µM was found to be 85.6%, the inhibition at 1.1 µM is 102% and the inhibition at 3.3 µM was found to be 112%. In test [1], the inhibition at 10 µM turned out to be 107% and the inhibition at 30 µM came out at 102%. Moreover, the Ki in test [2] was 26 nM.
For the compound `O=c1oc2c(c(O)c1C(c1ccccc1)C1CC1)CCCCC2CC1CCCO1` (stereo not drawn) [Example 189, 3-(Cyclopropylphenylmethyl)-6,7,8,9-tetrahydro4-hydroxy-9-[(tetrahydro-2-furanyl)methyl]-cyclohepta[b]pyran-2(5H)-one], in test [1], the inhibition at 0.123 µM is 15.7%, the inhibition at 0.37 µM was determined as 37.6%, the inhibition at 1.1 µM turned out to be 69.8% and the inhibition at 3.3 µM amounted to 89.3%. Further, in test [1], the inhibition at 10 µM came out at 98.1% and the inhibition at 30 µM was found to be 99.3%. Also, the Ki in test [2] is 36 nM.
With `O=c1oc2c(c(O)c1C(c1cccc(NS(=O)(=O)c3cc(C(F)(F)F)cc(C(F)(F)F)c3)c1)C1CC1)CCCCCC2` (stereo not drawn) [Example 332, N-[3-[Cyclopropyl(5,6,7,8,9,10-hexahydro-4-hydroxy-2-oxo-2H-cycloocta[b]pyran-3-yl)methyl]phenyl]-3,5-bis(trifluoromethyl)-benzenesulfonamide], in test [1], the inhibition at 0.123 µM was 23.1%, the inhibition at 0.37 µM came to 39.3%, the inhibition at 1.1 µM is 71.5% and the inhibition at 3.3 µM was 94%. In addition, in test [1], the inhibition at 10 µM was 109% and the inhibition at 30 µM turned out to be 115%. The Ki in test [2] was determined as 47 nM.
In the case of `O=c1oc2c(c(O)c1C(c1cccc(NS(=O)(=O)c3cccc(NCCO)c3)c1)C1CC1)CCCCCC2` (stereo not drawn) [Example 355 (First Title Compound), N-[3-[Cyclopropyl(5,6,7,8,9,10-hexahydro4-hydroxy-2-oxo-2H-cycloocta[b]pyran-3-yl)methyl]phenyl]-3-[(2-ethanol)amino]-benzenesulfonamide], in test [1], the inhibition at 0.123 µM worked out at 117%, the inhibition at 0.37 µM came to 117%, the inhibition at 1.1 µM amounted to 115% and the inhibition at 3.3 µM turned out to be 103%. Besides, in test [1], the inhibition at 10 µM stood at 72.6% and the inhibition at 30 µM was determined as 61.9%. Moreover, in test [2], the Ki worked out at 2.14 nM.
With `CN(C)c1ccc(N=Nc2ccc(S(=O)(=O)Nc3cccc(C(c4c(O)c5c(oc4=O)CCCCCC5)C4CC4)c3)cc2)cc1` (stereo not drawn) [Example 309, N-[3-[Cyclopropyl(5,6,7,8,9,10-hexahydro-4-hydroxy-2-oxo-2H-cycloocta[b]pyran-3-yl)methyl]phenyl]-4-[[4-(dimethylamino)phenyl]azo]-benzenesulfonamide], in test [1], the inhibition at 0.123 µM is 46.6%, the inhibition at 0.37 µM turned out to be 67.5%, the inhibition at 1.1 µM is 82.5% and the inhibition at 3.3 µM was determined as 76.5%. For the same compound, in test [1], the inhibition at 10 µM stood at 43.7% and the inhibition at 30 µM is 19.2%. Also, in test [2], the Ki was 5.8 nM.
`O=c1oc2c(c(O)c1C(c1cccc(NS(=O)(=O)c3cccnc3)c1)C1CC1)CCCCCC2` (stereo not drawn) [Example 314, N-[3-[Cyclopropyl(5,6,7,8,9,10-hexahydro-4-hydroxy-2-oxo-2H-cylcloocta[b]pyran-3-yl)methyl]phenyl]-3-pyridinesulfonamide]: in test [1], the inhibition at 0.123 µM was 79.5%, the inhibition at 0.37 µM worked out at 97.7%, the inhibition at 1.1 µM came to 108% and the inhibition at 3.3 µM was determined as 109%. Moreover, in test [1], the inhibition at 10 µM turned out to be 102% and the inhibition at 30 µM stood at 97.1%. Further, the Ki in test [2] is 2.31 nM and 2.01 nM.
With `COCC1CCCCCc2c1oc(=O)c(C(c1ccccc1)C1CC1)c2O` (stereo not drawn) [Example 177, 3-(Cyclopropylphenylmethyl)-5,6,7,8,9,10-hexahydro4-hydroxy-10-(methoxymethyl)-2H-cycloocta[b]pyran-2-one], in test [1], the inhibition at 0.37 µM was 16.9%, the inhibition at 1.1 µM came to 53.9%, the inhibition at 3.3 µM was 88.9% and the inhibition at 10 µM came out at 104%. The inhibition at 30 µM in test [1] turned out to be 104%. In test [2], the Ki turned out to be 55 nM.
As to `CC(C)CCC1CCCCCc2c1oc(=O)c(C(c1ccccc1)C1CC1)c2O` (stereo not drawn) [Example 132, 3-(Cyclopropyl-phenylmethyl)-4-hydroxy-10-(3-methyl-butyl)-5,6,7,8,9,10-hexahydro-cycloocta[b]pyran-2-one], in test [1], the inhibition at 0.37 µM is 39.5%, the inhibition at 1.1 µM was 76.2%, the inhibition at 3.3 µM turned out to be 98.1% and the inhibition at 10 µM amounted to 104%. Moreover, in test [1], the inhibition at 30 µM amounted to 103%. Also, in test [2], the Ki was 50 nM.
`CCCC1CCCCCc2c1oc(=O)c([C@H](c1ccccc1)C1CC1)c2O` (mixture of isomers) [Example 235, 3-(S)-(Cyclopropylphenylmethyl)-4-hydroxy-10-(R and S)-propyl-5,6,7,8,9,10-hexahydro-cycloocta[b]pyran-2-one]: in test [1], the inhibition at 0.123 µM came out at 24.8%, the inhibition at 0.37 µM stood at 71.8%, the inhibition at 1.1 µM came out at 92.7% and the inhibition at 3.3 µM was 105%. In test [1], the inhibition at 10 µM worked out at 103% and the inhibition at 30 µM was 99.5%. In test [2], the Ki came to 11 nM.
As to `O=c1oc2c(c(O)c1C1(c3ccccc3)CCC1)CCCCCC2` [Example 483, 3-(Phenylcyclobutyl)-5,6,7,8,9,10-hexahydro-4-hydroxy-2H-cycloocta[b]pyran-2-one], in test [1], the inhibition at 0.37 µM stood at 44.8%, the inhibition at 1.1 µM worked out at 73.2%, the inhibition at 3.3 µM was determined as 85.2% and the inhibition at 10 µM was found to be 69.5%. Further, the inhibition at 30 µM in test [1] amounted to 76.7%. Also, the Ki in test [2] came out at 33 nM.

Source of the values: patent US5686486A, “4-hydroxy-benzopyran-2-ones and 4-hydroxy-cycloalkyl[b]pyran-2-ones useful to treat retroviral infections” (priority 1995, dated 1997).
